In patent US20090258079A1, “Biocompatible Block Copolymer, Use Thereof and Manufacturing Method Thereof” (priority 2005, published 2009):

Experiments:
[1] = Solubilization of a drug by micelle formation with the block copolymer; format: physicochemical; details: acetic acid buffer (0.1 M), pH 4.5
[2] = drug without block copolymer, stated as known property; cited from earlier work
Hartley male guinea pigs = details: guinea pig, in vivo
Source text: Hartley male guinea pigs which were 10 weeks old and weighed 338 to 490 g were used. […] The physiological saline was also sterilized by filtration with a 0.22 μm membrane filter.

Hartley guinea pigs = details: guinea pig, in vivo, iv
Method: Hartley guinea pigs which were 7 weeks old and weighed 380 to 510 g were used. […] These substances were dissolved in physiological saline to a predetermined concentration, and the same amount of FCA (Freund's complete adjuvant) or FIA (Freund's incomplete adjuvant) was added to prepare a w/o emulsion. The FCA emulsion was first administered and then the FIA emulsion was administered under the skin of the back and foot pad of each guinea pig at a dose of 2.5 ml/kg on the second and third weeks for sensitization. […] These substances were dissolved in physiological saline to a predetermined concentration. The resulting solution was administered into the veins of the front feet or rear feet of the guinea pigs at a dose of 1.0 ml/kg on the fifth week for induction and observed for 4 hours. For 1 month after that, the weights of the guinea pigs were measured and the general conditions of the guinea pigs were observed once a week.

CC#CCC(C)[C@H](O)/C=C/[C@@H]1[C@H]2c3cccc(CCCC(=O)O)c3O[C@H]2C[C@H]1O (mixture of isomers) [beraprost sodium]
dissolution in acetic acid buffer [1]: precipitate was produced

CN(Cc1cnc2nc(N)nc(N)c2n1)c1ccc(C(=O)N[C@@H](CCC(=O)O)C(=O)O)cc1 [methotrexate]
solubility of the drug alone in water [2]: almost insoluble in water

Boc-(Leu-Leu-Ala-Lac)5-Leu-Phe-O-PEG4000-OH
toxicity by single dose intravenous administration (Hartley male guinea pigs; 20 mg/kg): not observed
general conditions (Hartley male guinea pigs; iv): Any special abnormality in the general conditions was not seen

B1: egg albumin: positive control in the ASA reaction test (protein, UniProt P01012 2-386, looked up)
Ovalbumin: GSIGAASMEFCFDVFKELKVHHANENIFYCPIAIMSALAMVYLGAKDSTRTQINKVVRFDKLPGFGDSIEAQCGTSVNVHSSLRDILNQITKPNDVYSFSLASRLYAEERYPILPEYLQCVKELYRGGLEPINFQTAADQARELINSWVESQTNGIIRNVLQPSSVDSQTAMVLVNAIVFKGLWEKAFKDEDTQAMPFRVTEQESKPVQMMYQIGLFRVASMASEKMKILELPFASGTMSMLVLLPDEVSGLEQLESIINFEKLTEWTSSNVMEERKIKVYLPRMKMEEKYNLTSVLMAMGITDVFSSSANLSGISSAESLKISQAVHAAHAEINEAGREVVGSAEAGVDAASVSEEFRADHPFLFCIKHIATNAVLFFGRCVSP
anaphylaxis reaction after induction administration (Hartley guinea pigs): anaphylaxis symptom was seen in all the guinea pigs
